Several values for one entry are separate records, joined by “and”; a condition that tells them apart may be missing. Equal entries are not always repeated. Where two headings read alike, the source gives them in different places.
Columns and labels:
human integrin αvβ6 [1] = target: T1, human integrin αvβ6 (Homo sapiens, UniProt P06756+P18564, DEL708-788); experiment: Equilibrium binding of yeast-displayed knottins to soluble integrin αvβ6 (two-colour flow cytometry, KD)
T1 construct: purchased R&D Systems

human integrin αvβ6 [2] = target: T1, human integrin αvβ6; parameters: method as in Kimura et al., Clin. Can. Res., 2012; conditions: ref Kimura et al., Clin. Can. Res., 2012; cited from earlier work
pancreatic cancer = experiment: [18F]FP-R01-MG-F2 vs [18F]FDG PET/CT in a pancreatic cancer patient (Stanford); conditions: one patient
Description: The line was flushed with at least 10 ml normal saline after injection. • Blood samples for blood time activity measurements were taken at 1, 3, 5, and 10 min after tracer administration and then at 30-minute intervals for up to 3 h after tracer injection. The counts in whole blood and plasma were measured by gamma counter (Perkin Elmer Wizard 1470). […] The scan was performed over the abdominal region to include the pancreas. Attenuation correction was employed via CT (120 kV, 10 mA). […] The scan was performed over the chest region. Attenuation correction was employed via CT (120 kV, 10 mA). • Static total-body (vertex-to-toe) PET/CT scans were acquired at 60 min and 120 min post injection. CT was performed at 120 kV; it was dose-modulated based on body habitus with current ranging from 10-105 mA for the 60-minute scan. […] EKG data was analyzed to assess changes in overall rhythm of the heart. • On the day of the study, participants were asked to void frequently to reduce radiation exposure. Urine samples were collected at prior to tracer administration (baseline), prior to the static PE scans, at the end of the study day 1, and at the follow up visits 1 day and 7 days after tracer administration.
Upon co-registration of the PET and CT images, the CT images were used to determine regions of interest for the organs or tissues reported in the manuscript. These ROIs were applied to the PET images of the brain, pituitary gland, breast, lower and upper large intestine, small intestine, stomach, pancreas, heart wall, liver, lung, muscle, red marrow, bone, skin, and thyroid gland. For high uptake organs such as the kidneys, bladder and for the whole body, threshold-based segmentation of PET images were used to determine a close-fitting ROI around the entire organ or whole body. In order to determine accuracy, these PET-derived ROIs were compared to the CT overlay for a close match.

cervical cancer = experiment: [18F]FDG PET/CT (PUMC Hospital); type: in vivo, human; conditions: second cervical cancer patient
Description: All patients were instructed to avoid strenuous work or exercise for at least 24 h prior to the scheduled study date. Study participants were also instructed to fast for at least 4 h before intravenous administration of the PET tracer. Patients were administered [^18F]FDG at a dosage of 5.55 MBq (0.15 mCi) per kilogram body weight. Immediately after tracer administration, patients were allowed to rest and relax in a warm, darkened room for approximately 45–60 min. Next, each patient emptied their bladder. The PET scan that followed spanned a region from the mid-thigh area to the base of the skull (six bed positions, 2 min bed^−1).

T1 sequence (P06756 31-992 limits assumed, stated change not applied): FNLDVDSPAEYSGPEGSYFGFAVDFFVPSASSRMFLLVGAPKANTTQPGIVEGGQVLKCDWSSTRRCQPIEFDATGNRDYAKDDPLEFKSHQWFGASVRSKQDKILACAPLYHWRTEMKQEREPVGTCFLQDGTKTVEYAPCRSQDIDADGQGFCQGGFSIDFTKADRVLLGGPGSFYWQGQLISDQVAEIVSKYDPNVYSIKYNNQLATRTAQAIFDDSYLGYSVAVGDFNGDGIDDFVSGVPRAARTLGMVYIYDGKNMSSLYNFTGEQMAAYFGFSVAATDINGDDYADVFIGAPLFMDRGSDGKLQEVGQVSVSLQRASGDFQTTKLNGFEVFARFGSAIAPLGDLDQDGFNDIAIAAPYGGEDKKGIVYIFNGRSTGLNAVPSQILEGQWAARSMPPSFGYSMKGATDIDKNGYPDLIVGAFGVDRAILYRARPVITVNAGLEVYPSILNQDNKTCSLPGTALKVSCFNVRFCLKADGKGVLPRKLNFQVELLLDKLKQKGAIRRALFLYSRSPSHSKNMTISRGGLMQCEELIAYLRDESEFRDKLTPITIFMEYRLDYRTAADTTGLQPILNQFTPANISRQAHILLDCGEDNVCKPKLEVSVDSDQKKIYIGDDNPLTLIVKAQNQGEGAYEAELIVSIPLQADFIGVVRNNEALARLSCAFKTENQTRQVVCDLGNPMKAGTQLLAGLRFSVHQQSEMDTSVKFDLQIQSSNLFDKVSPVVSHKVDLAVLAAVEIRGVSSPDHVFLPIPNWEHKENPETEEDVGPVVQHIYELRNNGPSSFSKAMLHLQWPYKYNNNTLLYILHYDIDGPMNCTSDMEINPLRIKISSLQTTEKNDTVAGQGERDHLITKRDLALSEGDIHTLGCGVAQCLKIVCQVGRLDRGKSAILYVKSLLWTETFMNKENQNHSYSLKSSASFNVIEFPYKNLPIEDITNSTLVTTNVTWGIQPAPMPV
T1 sequence (P18564 22-707 limits assumed, stated change not applied): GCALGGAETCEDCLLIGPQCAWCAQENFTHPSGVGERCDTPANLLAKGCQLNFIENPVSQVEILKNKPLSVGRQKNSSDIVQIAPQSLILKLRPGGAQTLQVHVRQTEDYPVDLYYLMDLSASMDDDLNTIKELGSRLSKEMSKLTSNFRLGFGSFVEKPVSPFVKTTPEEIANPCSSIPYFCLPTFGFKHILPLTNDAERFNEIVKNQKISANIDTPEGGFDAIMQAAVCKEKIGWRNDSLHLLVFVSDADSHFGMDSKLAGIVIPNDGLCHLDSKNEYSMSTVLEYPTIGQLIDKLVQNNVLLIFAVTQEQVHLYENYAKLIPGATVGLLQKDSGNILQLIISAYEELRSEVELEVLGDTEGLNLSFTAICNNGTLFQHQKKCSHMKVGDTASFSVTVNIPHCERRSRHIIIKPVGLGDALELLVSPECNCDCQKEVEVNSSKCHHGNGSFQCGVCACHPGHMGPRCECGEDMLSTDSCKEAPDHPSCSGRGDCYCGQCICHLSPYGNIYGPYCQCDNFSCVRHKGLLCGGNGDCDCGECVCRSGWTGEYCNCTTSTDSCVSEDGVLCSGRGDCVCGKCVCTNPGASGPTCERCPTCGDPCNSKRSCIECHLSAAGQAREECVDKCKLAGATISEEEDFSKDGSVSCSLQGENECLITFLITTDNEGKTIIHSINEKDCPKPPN

Row | Structure (SMILES) | Kd (human integrin αvβ6 [1]) [nM] | Kd (human integrin αvβ6 [2]) [nM] | SUVmean, liver (pancreatic cancer; 1 h p.i.) | SUVmean, small intestines (pancreatic cancer; 1 h p.i.) | SUVmean, stomach (pancreatic cancer; 1 h p.i.) | SUVmean, pancreatic tumor (pancreatic cancer; ~1 h p.i.) | SUVmean, cervical tumor (cervical cancer)
1 | CC[C@H](C)[C@@H]1NC(=O)[C@@H](NC(=O)CN)CSSC[C@@H]2NC(=O)[C@H](C)NC(=O)CNC(=O)[C@@H]3CCCN3C(=O)[C@@H]3CSSC[C@@H](C(=O)NCC(N)=O)NC(=O)[C@H](Cc4ccc(O)cc4)NC(=O)CNC(=O)[C@H](CC(N)=O)NC(=O)CNC(=O)[C@H](CCCNC(=N)N)NC(=O)[C@H](CSSC[C@H](NC(=O)[C@H](CCCNC(=N)N)NC(=O)[C@H](Cc4ccccc4)NC(=O)[C@H](CC(C)C)NC(=O)[C@H](CC(C)C)NC(=O)[C@H]([C@@H](C)O)NC(=O)CNC(=O)[C@H](CC(C)C)NC(=O)[C@H](CC(=O)O)NC(=O)[C@H]([C@@H](C)O)NC(=O)[C@H](CCCNC(=N)N)NC(=O)[C@H](CCSC)NC(=O)[C@H](CC(N)=O)NC(=O)[C@H](CC(C)C)NC1=O)C(=O)N[C@@H](CCCNC(=N)N)C(=O)N[C@@H](CCCNC(=N)N)C(=O)N[C@@H](CC(=O)O)C(=O)N[C@@H](CO)C(=O)N[C@@H](CC(=O)O)C(=O)N3)NC(=O)[C@H]([C@@H](C)CC)NC2=O [R01] | ~1 | ~3 | – | – | – | – | –
2 | OC[C@H]1OC(O)[C@H]([18F])[C@@H](O)[C@@H]1O (stereo partly shown) [[^18F]FDG, reference compound] | – | – | 2.9 | 2.5 | 0.16 | 4.1 and ~ 4 | 4.1

Reference: PMC6791878, “Evaluation of integrin αvβ6 cystine knot PET tracers to detect cancer and idiopathic pulmonary fibrosis” (Nature Communications, 2019)
